Data published in ChEMBL document CHEMBL5614426 (J Med Chem, 2024).

What was measured:
[1] = molecular target: T1, Histone-lysine N-methyltransferase NSD2 (Homo sapiens, UniProt O96028); test: Inhibition of NSD2-SET domain (unknown origin)
T1 sequence (O96028 whole entry): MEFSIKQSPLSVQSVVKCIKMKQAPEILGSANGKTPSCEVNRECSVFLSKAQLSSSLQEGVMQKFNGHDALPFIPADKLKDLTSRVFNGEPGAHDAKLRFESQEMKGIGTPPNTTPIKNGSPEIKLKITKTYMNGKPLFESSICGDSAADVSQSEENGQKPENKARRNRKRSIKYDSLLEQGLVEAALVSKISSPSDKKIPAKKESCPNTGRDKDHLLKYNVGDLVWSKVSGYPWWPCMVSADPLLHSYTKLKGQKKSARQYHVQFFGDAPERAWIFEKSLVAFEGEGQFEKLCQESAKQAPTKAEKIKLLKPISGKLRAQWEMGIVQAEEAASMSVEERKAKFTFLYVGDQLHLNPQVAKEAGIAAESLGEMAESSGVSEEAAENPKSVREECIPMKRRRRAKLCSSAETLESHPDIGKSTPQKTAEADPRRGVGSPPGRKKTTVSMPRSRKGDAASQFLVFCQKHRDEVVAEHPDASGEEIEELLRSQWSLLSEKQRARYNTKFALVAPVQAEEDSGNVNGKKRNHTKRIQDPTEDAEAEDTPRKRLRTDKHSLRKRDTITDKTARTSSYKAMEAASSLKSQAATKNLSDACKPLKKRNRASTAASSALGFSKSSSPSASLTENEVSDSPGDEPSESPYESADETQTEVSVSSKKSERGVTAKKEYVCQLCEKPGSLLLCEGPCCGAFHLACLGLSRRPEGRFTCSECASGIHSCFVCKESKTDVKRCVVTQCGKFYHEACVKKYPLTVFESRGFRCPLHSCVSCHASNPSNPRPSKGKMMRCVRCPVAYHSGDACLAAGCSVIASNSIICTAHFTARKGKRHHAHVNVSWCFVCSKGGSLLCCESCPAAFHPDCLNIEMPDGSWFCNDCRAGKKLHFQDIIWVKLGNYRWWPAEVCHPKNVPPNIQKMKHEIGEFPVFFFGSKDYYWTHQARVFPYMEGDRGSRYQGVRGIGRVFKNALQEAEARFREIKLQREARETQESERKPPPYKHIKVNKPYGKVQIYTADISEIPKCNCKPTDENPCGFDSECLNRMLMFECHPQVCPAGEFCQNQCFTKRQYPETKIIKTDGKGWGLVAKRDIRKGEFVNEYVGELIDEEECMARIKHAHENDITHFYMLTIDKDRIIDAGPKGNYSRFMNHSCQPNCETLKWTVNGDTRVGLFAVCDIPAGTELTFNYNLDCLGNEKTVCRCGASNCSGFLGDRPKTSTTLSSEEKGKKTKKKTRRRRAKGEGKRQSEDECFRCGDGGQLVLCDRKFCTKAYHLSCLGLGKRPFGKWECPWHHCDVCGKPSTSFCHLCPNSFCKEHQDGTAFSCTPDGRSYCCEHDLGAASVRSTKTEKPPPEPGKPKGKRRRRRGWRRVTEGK

[2] = AUC (0 to last) in mouse at 1 mg/kg, iv measured upto 24 hrs by LC-MS/MS analysis; type: ADME, organism-based; conditions: in vivo
[3] = AUC (0 to last) in mouse at 50 mg/kg, po measured upto 24 hrs by LC-MS/MS analysis; type: ADME, organism-based; conditions: in vivo
[4] = AUC (0 to infinity) in mouse at 1 mg/kg, iv measured upto 24 hrs by LC-MS/MS analysis; type: ADME, organism-based; conditions: in vivo
[5] = molecular target: Protein arginine N-methyltransferase 5 (Homo sapiens, UniProt O14744); test: Inhibition of PRMT5 (unknown origin)
[6] = molecular target: T2, Histone-arginine methyltransferase CARM1 (Homo sapiens, UniProt Q86X55); test: Inhibition of PRMT4 (unknown origin)
T2 sequence (Q86X55 whole entry): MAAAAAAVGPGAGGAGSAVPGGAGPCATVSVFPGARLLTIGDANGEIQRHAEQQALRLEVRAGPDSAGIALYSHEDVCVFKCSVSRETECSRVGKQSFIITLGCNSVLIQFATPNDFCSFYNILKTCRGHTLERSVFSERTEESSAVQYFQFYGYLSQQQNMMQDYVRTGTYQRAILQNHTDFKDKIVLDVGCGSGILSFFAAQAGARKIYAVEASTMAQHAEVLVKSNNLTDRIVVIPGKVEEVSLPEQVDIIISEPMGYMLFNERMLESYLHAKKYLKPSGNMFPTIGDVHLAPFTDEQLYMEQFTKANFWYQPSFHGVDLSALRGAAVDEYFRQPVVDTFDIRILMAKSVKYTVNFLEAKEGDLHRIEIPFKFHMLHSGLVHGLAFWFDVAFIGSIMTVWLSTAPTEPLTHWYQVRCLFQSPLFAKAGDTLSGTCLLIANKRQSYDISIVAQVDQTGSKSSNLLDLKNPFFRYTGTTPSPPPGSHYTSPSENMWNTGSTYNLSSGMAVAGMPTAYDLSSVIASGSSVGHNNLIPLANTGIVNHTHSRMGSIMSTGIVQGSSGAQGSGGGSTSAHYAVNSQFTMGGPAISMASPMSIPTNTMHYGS

[7] = Cmax in mouse at 1 mg/kg, iv measured upto 24 hrs by LC-MS/MS analysis; type: ADME, organism-based; conditions: in vivo
[8] = Half life in mouse at 1 mg/kg, iv measured upto 24 hrs by LC-MS/MS analysis; type: ADME, organism-based; conditions: in vivo
[9] = molecular target: DNA (cytosine-5)-methyltransferase 1 (Homo sapiens, UniProt P26358); test: Inhibition of DNMT1 (unknown origin)
[10] = molecular target: Protein arginine N-methyltransferase 8 (Homo sapiens, UniProt Q9NR22); test: Inhibition of PRMT8 (unknown origin)
[11] = molecular target: Histone-lysine N-methyltransferase 2A (Homo sapiens, UniProt Q03164); test: Inhibition of MLL1 (unknown origin)
[12] = Toxicity in female NU/NU mouse xenografted with human RS4-11 cells assessed as change in body weight at 50 mg/kg, po administered for 21 days; type: organism-based; conditions: in vivo, 504 h, time 21 day
[13] = MRT (0 to t) in mouse at 50 mg/kg, po measured upto 24 hrs by LC-MS/MS analysis; type: ADME, organism-based; conditions: in vivo
[14] = Half life in mouse at 50 mg/kg, po measured upto 24 hrs by LC-MS/MS analysis; type: ADME, organism-based; conditions: in vivo
[15] = Volume of distribution at steady state in mouse at 1 mg/kg, iv measured upto 24 hrs by LC-MS/MS analysis; type: ADME, organism-based; conditions: in vivo, read-out: Vdss
[16] = Cmax in mouse at 50 mg/kg, po measured upto 24 hrs by LC-MS/MS analysis; type: ADME, organism-based; conditions: in vivo
[17] = molecular target: Histone-lysine N-methyltransferase 2B (Homo sapiens, UniProt Q9UMN6); test: Inhibition of MLL4 (unknown origin)
[18] = Oral bioavailability in mouse at 50 mg/kg measured upto 24 hrs by LC-MS/MS analysis; type: ADME, organism-based; conditions: in vivo
[19] = molecular target: T3, Histone-lysine N-methyltransferase EHMT1 (Homo sapiens, UniProt Q9H9B1); test: Inhibition of GLP (unknown origin)
T3 sequence (Q9H9B1 whole entry): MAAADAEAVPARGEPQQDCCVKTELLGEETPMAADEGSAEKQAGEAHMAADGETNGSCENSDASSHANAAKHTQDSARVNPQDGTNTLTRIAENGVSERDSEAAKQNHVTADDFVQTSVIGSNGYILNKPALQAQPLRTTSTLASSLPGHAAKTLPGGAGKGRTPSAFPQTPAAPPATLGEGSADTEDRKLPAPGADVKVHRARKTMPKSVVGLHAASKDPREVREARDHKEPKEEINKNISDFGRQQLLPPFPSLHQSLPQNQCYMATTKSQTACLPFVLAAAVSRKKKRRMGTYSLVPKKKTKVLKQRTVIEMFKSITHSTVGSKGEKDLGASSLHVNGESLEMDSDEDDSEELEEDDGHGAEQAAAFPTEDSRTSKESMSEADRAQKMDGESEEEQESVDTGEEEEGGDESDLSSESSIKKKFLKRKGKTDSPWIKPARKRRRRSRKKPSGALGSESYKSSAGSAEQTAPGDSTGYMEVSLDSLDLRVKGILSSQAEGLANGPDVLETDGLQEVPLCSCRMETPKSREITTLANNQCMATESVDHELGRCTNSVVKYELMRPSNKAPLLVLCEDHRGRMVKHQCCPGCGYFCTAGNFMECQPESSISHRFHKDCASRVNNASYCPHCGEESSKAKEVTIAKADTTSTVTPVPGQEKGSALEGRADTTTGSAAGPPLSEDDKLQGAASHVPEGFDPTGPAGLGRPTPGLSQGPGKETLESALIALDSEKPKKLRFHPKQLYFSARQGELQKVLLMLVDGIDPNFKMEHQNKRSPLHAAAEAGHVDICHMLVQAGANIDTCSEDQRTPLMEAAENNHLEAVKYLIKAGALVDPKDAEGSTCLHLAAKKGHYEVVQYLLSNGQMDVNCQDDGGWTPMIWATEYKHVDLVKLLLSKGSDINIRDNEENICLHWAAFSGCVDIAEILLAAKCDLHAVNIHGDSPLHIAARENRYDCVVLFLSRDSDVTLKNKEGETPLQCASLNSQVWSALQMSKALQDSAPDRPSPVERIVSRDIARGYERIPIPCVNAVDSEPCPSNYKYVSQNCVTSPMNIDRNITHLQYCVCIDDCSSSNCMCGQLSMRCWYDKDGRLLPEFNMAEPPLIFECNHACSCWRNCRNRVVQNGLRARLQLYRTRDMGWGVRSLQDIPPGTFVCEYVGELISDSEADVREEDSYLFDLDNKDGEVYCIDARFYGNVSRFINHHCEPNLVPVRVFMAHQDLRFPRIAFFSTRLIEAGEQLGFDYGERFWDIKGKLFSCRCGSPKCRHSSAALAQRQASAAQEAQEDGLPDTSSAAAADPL

[20] = AUC (0 to infinity) in mouse at 50 mg/kg, po measured upto 24 hrs by LC-MS/MS analysis; type: ADME, organism-based; conditions: in vivo
[21] = MRT (0 to t) in mouse at 1 mg/kg, iv measured upto 24 hrs by LC-MS/MS analysis; type: ADME, organism-based; conditions: in vivo
[22] = molecular target: Histone-lysine N-methyltransferase EZH2 (Homo sapiens, UniProt Q15910); test: Inhibition of EZH2 (unknown origin)
Histone-lysine N-methyltransferase EZH2, sequence (Q15910 whole entry): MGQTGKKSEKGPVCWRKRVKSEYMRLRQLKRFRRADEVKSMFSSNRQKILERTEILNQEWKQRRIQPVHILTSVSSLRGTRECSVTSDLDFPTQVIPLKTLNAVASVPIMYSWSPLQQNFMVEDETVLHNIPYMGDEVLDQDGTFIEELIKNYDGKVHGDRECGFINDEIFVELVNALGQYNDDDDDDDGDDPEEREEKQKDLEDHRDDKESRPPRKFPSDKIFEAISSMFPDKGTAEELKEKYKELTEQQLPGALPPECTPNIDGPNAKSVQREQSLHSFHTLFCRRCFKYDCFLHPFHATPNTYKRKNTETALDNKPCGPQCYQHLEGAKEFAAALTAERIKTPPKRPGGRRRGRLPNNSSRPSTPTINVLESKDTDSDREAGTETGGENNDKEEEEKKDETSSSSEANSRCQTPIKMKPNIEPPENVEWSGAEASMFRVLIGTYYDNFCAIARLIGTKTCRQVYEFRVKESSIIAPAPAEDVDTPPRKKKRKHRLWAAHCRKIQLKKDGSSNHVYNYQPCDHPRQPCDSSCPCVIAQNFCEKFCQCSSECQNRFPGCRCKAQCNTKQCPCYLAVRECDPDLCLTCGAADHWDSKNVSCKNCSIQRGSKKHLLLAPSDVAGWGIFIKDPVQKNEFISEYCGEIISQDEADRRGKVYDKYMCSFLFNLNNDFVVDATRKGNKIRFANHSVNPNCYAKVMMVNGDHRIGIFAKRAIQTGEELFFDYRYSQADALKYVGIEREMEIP

Histone-lysine N-methyltransferase 2A, sequence (Q03164 1-2718 limits assumed): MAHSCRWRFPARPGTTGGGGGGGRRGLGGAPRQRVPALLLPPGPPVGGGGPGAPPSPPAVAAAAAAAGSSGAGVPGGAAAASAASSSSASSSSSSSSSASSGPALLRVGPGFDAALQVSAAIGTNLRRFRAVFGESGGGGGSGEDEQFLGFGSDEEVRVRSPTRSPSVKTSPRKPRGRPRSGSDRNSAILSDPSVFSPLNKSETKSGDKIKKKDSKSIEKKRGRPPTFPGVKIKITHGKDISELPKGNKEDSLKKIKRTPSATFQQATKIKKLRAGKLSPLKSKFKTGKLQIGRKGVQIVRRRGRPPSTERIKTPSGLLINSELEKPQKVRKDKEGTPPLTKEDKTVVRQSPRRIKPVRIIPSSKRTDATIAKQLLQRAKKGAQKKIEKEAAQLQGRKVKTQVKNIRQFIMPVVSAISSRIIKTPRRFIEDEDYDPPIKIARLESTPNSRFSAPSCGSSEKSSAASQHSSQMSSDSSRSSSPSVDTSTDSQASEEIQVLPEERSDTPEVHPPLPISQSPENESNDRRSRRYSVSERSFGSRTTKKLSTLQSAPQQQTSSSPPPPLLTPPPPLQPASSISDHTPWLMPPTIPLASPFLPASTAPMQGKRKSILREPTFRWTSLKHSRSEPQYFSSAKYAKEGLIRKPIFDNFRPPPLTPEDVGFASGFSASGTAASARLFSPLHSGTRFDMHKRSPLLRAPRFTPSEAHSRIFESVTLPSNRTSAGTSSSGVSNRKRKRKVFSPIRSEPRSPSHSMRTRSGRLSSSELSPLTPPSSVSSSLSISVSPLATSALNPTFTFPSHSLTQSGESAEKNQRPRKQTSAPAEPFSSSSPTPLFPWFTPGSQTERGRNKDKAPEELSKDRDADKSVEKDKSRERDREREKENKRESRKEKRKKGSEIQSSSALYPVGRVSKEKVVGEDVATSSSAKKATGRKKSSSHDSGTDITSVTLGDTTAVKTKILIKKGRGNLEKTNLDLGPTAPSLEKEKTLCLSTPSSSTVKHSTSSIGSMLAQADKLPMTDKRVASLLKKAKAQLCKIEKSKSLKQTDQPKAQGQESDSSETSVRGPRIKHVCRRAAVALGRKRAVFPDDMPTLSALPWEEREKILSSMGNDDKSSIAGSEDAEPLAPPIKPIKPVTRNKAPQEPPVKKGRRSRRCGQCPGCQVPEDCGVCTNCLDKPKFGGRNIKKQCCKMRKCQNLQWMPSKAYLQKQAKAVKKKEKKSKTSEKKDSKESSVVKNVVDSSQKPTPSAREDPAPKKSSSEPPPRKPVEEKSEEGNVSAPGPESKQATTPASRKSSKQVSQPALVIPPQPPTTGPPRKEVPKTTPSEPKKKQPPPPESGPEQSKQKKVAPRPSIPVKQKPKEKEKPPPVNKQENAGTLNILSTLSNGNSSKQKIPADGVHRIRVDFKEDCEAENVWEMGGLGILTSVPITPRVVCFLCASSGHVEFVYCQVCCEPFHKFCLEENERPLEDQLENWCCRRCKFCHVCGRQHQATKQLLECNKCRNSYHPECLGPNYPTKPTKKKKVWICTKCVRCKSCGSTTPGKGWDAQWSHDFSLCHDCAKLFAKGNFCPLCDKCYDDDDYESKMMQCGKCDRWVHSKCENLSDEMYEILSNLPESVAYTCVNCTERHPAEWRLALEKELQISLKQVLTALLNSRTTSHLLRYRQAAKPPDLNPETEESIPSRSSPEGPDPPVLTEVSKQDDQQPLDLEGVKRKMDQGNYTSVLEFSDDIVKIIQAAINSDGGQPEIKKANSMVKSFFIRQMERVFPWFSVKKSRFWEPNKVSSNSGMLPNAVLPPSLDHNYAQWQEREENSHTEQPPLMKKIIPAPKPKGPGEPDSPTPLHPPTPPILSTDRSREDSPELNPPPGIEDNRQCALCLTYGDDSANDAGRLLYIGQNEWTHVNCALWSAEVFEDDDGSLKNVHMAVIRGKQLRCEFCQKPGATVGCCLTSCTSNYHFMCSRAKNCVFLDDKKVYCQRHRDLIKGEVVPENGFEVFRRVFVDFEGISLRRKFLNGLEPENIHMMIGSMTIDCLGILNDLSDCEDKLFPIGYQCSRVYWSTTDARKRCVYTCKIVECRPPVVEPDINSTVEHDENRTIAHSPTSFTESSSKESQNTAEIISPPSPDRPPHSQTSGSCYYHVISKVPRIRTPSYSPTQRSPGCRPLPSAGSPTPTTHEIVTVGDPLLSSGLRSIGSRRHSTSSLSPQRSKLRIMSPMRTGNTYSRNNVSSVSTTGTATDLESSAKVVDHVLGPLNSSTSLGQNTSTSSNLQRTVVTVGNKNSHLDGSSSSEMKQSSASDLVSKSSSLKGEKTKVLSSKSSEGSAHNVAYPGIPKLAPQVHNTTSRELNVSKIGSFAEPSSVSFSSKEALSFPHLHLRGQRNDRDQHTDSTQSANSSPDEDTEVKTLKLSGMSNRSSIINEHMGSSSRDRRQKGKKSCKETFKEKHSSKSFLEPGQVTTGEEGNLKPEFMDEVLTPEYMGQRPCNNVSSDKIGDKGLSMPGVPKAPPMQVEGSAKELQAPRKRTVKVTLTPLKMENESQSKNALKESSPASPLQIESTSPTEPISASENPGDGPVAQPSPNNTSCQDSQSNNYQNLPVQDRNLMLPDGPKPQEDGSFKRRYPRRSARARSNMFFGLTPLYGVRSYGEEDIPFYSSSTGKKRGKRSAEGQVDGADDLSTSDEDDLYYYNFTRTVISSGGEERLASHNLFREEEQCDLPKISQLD
Histone-lysine N-methyltransferase 2A, sequence (Q03164 2719-3969 limits assumed): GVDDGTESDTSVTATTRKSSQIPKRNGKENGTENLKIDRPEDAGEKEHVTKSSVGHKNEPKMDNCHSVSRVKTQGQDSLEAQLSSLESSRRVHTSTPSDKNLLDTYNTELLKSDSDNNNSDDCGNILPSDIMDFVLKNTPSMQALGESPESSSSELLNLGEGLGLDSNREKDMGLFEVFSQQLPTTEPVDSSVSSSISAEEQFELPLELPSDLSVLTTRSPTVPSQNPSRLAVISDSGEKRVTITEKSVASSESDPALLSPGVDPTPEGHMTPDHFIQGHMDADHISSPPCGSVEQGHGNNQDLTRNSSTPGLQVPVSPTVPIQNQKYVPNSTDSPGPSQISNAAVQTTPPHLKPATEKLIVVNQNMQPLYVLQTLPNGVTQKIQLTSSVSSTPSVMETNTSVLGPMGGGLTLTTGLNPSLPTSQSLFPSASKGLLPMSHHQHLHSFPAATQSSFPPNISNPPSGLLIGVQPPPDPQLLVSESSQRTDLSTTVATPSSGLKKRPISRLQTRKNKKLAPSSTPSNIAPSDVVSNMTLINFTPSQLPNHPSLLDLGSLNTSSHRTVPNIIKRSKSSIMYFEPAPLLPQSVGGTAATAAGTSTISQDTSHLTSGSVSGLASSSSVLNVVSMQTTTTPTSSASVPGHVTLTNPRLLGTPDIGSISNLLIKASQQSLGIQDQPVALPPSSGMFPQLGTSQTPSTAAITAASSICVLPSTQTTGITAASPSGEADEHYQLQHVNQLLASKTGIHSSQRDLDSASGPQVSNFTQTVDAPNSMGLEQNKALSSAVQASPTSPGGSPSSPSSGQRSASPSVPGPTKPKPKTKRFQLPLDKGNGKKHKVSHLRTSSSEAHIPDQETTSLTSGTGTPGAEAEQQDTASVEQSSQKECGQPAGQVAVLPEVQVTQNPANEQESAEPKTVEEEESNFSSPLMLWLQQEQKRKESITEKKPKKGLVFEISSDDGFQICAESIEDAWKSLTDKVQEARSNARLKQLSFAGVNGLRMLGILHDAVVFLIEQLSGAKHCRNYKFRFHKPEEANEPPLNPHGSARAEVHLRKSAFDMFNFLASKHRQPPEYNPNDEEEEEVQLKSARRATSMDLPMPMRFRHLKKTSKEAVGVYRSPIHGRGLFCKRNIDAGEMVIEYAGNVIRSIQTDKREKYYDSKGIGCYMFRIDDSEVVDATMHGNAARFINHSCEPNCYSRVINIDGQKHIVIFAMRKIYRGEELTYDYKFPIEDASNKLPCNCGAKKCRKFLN
Protein arginine N-methyltransferase 8, sequence (Q9NR22 whole entry): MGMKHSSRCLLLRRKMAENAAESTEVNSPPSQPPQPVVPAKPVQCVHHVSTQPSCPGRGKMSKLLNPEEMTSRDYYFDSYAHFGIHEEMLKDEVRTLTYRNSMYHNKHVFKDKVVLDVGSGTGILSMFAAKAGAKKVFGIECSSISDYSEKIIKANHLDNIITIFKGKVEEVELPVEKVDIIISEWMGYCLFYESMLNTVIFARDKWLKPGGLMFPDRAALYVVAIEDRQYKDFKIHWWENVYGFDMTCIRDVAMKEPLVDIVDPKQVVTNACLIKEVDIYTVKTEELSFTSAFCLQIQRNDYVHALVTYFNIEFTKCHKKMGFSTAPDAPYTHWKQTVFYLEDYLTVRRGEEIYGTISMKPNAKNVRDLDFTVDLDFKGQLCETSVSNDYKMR

## COc1cc(F)c(-c2cc(Cn3cnc4c(N)ncnc43)c(N3CCC[C@](N)([C@H](O)C(F)F)C3)cn2)cc1F
[1]
  IC50: < 0.1 µM

## COc1cc2c(NC3CCN(C(C)C)CC3)nc(C#N)nc2cc1OCCCN1CCOCC1
[2]
  AUClast: 123.9 ng·h/mL
[3]
  AUClast: 1694.02 ng·h/mL
[4]
  AUC: 134 ng·h/mL
[5]
  IC50: > 10 µM
[6]
  IC50: 8.96 µM
[7]
  Cmax: 280 nM
[8]
  t1/2: 8 h
[9]
  IC50: > 10 µM
[10]
  IC50: > 10 µM
[11]
  IC50: > 10 µM
[12]
  Activity: Non-Toxic
[13]
  MRT last at 24 h: 5.3 h
[14]
  half-life: 6.35 h
[15]
  Vd: 46 L/kg
[16]
  Cmax: 1160 nM
[17]
  IC50: > 10 µM
[18]
  bioavailability: 27.3%
[19]
  IC50: > 10 µM
[20]
  AUC: 1760 ng·h/mL
[21]
  MRT last at 24 h: 6.12 h
[22]
  IC50: > 10 µM
